Consider eleven compounds from ChEMBL document CHEMBL1201862, “PubChem BioAssay data set” (2004).

Some test systems named below: U-251; HCC 2998; OVCAR-4; SK-OV-3; HOP-92; NCI-H522; UACC-257; SNB-75; RXF 393; NCI-H226; OVCAR-5; CCRF-CEM; M19-MEL; NCI-H23; SN12C; SNB-19; MOLT-4; Hs-578T; TK-10.
What all share (assay): NCI anticancer screen, dose series, 48 h

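1) Cells in 96-well plates. 2) Compound, 48 h, 5 concentrations. 3) Linear interpolation between surrounding doses. 4) Unreached endpoint = highest concentration. The concentration for 50% growth inhibition is given as GI50.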 Activity calls are given as the source filed them. Cut-off read from the data, not from the text of the source: active = GI50 up to about 1.1 µM and inactive = higher.

Consider `O=P(NCCCO)(OCc1ccccc1)N(CCCl)CCCl` (stereo unspecified), for which the GI50 in the assay with U-251, in the assay on HCC 2998, with OVCAR-4, in the assay on SK-OV-3, in the assay on HOP-92 and in the assay on NCI-H522 was > 100 µM (inactive) in each case. For the same compound, the GI50 with UACC-257, with SNB-75, in the assay on RXF 393, in the assay on NCI-H226, in the assay with OVCAR-5 and in the assay with CCRF-CEM was > 100 µM (inactive) throughout. Besides, the GI50 in the assay with M19-MEL, in the assay on NCI-H23, in the assay on SN12C, with SNB-19 and in the assay with MOLT-4 was > 100 µM (inactive) throughout.
Turning to `O=C(Nc1ccc(Cl)cc1)c1cc(S(=O)(=O)NC2=Nc3ccc(Cl)cc3C(c3ccccc3)N2)c(SSc2cc(Cl)c(C(=O)Nc3ccc(Cl)cc3)cc2S(=O)(=O)NC2=Nc3ccc(Cl)cc3C(c3ccccc3)N2)cc1Cl` (stereo unspecified), the GI50 with Hs-578T, in the assay with U-251, in the assay with HCC 2998, in the assay on OVCAR-4, in the assay with SK-OV-3 and in the assay with TK-10 was > 100 µM (inactive) each time. Also, the GI50 in the assay on HOP-92 was 83.4 µM (inactive); in the assay with NCI-H522, > 100 µM (inactive); with UACC-257 it was > 100 µM (inactive); in the assay with SNB-75, > 100 µM (inactive); with RXF 393, > 100 µM (inactive); with NCI-H226, > 100 µM (inactive). For the same compound, the GI50 is 83.4 µM (inactive) in the assay on OVCAR-5; 17.1 µM (inactive) in the assay on CCRF-CEM; > 100 µM (inactive) in the assay on NCI-H23; > 100 µM (inactive) in the assay on SN12C; > 100 µM (inactive) with SNB-19; 25.9 µM (inactive) with MOLT-4.
As to `C[C@]12C=CC(=O)C=C1CC[C@@H]1[C@@H]2CC[C@@]2(C)[C@H]1CC[C@]2(O)C(N)=O`, the GI50 in the assay with Hs-578T, with U-251, in the assay with HCC 2998, in the assay on OVCAR-4, in the assay on SK-OV-3 and in the assay with TK-10 was > 100 µM (inactive) in each case. The GI50 with HOP-92 was > 100 µM (inactive); in the assay with NCI-H522 it was > 100 µM (inactive); with UACC-257, 50.8 µM (inactive); with SNB-75 it was > 100 µM (inactive); in the assay on RXF 393, > 100 µM (inactive); with NCI-H226, > 100 µM (inactive). The GI50 in the assay with OVCAR-5, in the assay with CCRF-CEM, in the assay with NCI-H23, in the assay on SN12C, in the assay with SNB-19 and in the assay on MOLT-4 was > 100 µM (inactive) each time.
Consider `COc1cc(-c2cc(=O)c3cc4c(=O)cc(-c5cc(OC)c(OC)c(OC)c5)oc4cc3o2)cc(OC)c1OC`, for which the GI50 was 20.1 µM (inactive) in the assay with Hs-578T; 8.59 µM (inactive) with U-251; > 100 µM (inactive) with HCC 2998; > 82.8 µM (inactive) in the assay with OVCAR-4; 18.8 µM (inactive) in the assay on SK-OV-3; 16.3 µM (inactive) with TK-10. Moreover, the GI50 with HOP-92 is 14.6 µM (inactive); with NCI-H522 it was 27.4 µM (inactive); with UACC-257 it was > 83.6 µM (inactive); in the assay on SNB-75, 13.5 µM (inactive); in the assay on RXF 393, 7.98 µM (inactive); with NCI-H226 it was 12.9 µM (inactive). In addition, the GI50 in the assay on OVCAR-5 is > 100 µM (inactive); in the assay with CCRF-CEM it was > 100 µM (inactive); with NCI-H23, 25.8 µM (inactive); with SN12C, 32.4 µM (inactive); in the assay on SNB-19, 16.4 µM (inactive); in the assay with MOLT-4, > 88.7 µM (inactive).
Take `CC1OC(OC2C(OC3CCC4(C)C(CCC5(C)C4CC=C4C6CC(C)(C)CCC6(C(=O)O)CCC45C)C3(C)CO)OCC(O)C2O)C(O)C(O)C1O` (stereo unspecified): the GI50 with Hs-578T was 14.1 µM (inactive); in the assay with U-251 it was 21.9 µM (inactive); in the assay with HCC 2998 it was 13.4 µM (inactive); in the assay with OVCAR-4 it was 11.8 µM (inactive); with SK-OV-3 it was 18.1 µM (inactive); in the assay on TK-10 it was 20 µM (inactive). Also, the GI50 was 10.1 µM (inactive) in the assay on HOP-92; 13.3 µM (inactive) in the assay on NCI-H522; 18.5 µM (inactive) in the assay on UACC-257; 14.2 µM (inactive) in the assay on SNB-75; 2.72 µM (inactive) in the assay on RXF 393; 21.2 µM (inactive) in the assay on NCI-H226. For the same compound, the GI50 in the assay on OVCAR-5 is 19.8 µM (inactive); with CCRF-CEM, 4.68 µM (inactive); with NCI-H23 it was 17.7 µM (inactive); with SN12C, 21.1 µM (inactive); in the assay with SNB-19 it was 15.8 µM (inactive); in the assay on MOLT-4, 14.6 µM (inactive).
In the case of `Oc1ccccc1C(Sc1nc2ccccc2s1)Sc1nc2ccccc2s1`, the GI50 with Hs-578T is 24.1 µM (inactive); in the assay with U-251, 57.7 µM (inactive); with HCC 2998 it was > 100 µM (inactive); in the assay with OVCAR-4 it was 76.4 µM (inactive); in the assay with SK-OV-3 it was > 100 µM (inactive); in the assay on TK-10, > 100 µM (inactive). For the same compound, the GI50 is 22.8 µM (inactive) in the assay on HOP-92; 17.6 µM (inactive) in the assay on NCI-H522; > 100 µM (inactive) with UACC-257; > 100 µM (inactive) with SNB-75; > 100 µM (inactive) in the assay with RXF 393; 36.3 µM (inactive) in the assay on NCI-H226. Besides, the GI50 is > 100 µM (inactive) in the assay on OVCAR-5; 26.5 µM (inactive) with CCRF-CEM; 58.7 µM (inactive) in the assay on NCI-H23; > 100 µM (inactive) with SN12C; 64.6 µM (inactive) in the assay with SNB-19; 44.2 µM (inactive) with MOLT-4.
On to `CC1(c2ccc[n+](Cc3ccccc3)c2)OCCO1`, for which the GI50 in the assay on U-251, in the assay with HCC 2998, in the assay with OVCAR-4, in the assay with SK-OV-3, in the assay with TK-10 and in the assay on NCI-H522 was > 100 µM (inactive) each time. In addition, the GI50 with UACC-257, in the assay on SNB-75, in the assay with RXF 393, in the assay with NCI-H226, in the assay on OVCAR-5 and in the assay with CCRF-CEM was > 100 µM (inactive) throughout. In addition, the GI50 with M19-MEL, in the assay with NCI-H23, with SN12C, in the assay on SNB-19 and with MOLT-4 was > 100 µM (inactive) each time.
For the compound `COC(=O)/C=C1\CCCN1CCc1cc2c(cc1CC#N)OCO2`, the GI50 is > 100 µM (inactive) with Hs-578T; 39.7 µM (inactive) in the assay on U-251; 28.1 µM (inactive) in the assay with HCC 2998; 51.3 µM (inactive) with OVCAR-4; 34.9 µM (inactive) in the assay with SK-OV-3; > 100 µM (inactive) in the assay on TK-10. Further, the GI50 in the assay on HOP-92 was > 100 µM (inactive); in the assay on NCI-H522, > 100 µM (inactive); in the assay with UACC-257, 59.4 µM (inactive); with SNB-75 it was 25.1 µM (inactive); with RXF 393 it was 31.7 µM (inactive); in the assay on NCI-H226 it was 48.6 µM (inactive). Moreover, the GI50 in the assay with OVCAR-5 is > 100 µM (inactive); in the assay with CCRF-CEM it was 42.5 µM (inactive); in the assay with NCI-H23, 47.2 µM (inactive); in the assay with SN12C it was 50 µM (inactive); with SNB-19, 60 µM (inactive); in the assay on MOLT-4 it was 34.4 µM (inactive).
Take `C=C1c2nc3ccccc3n2C=C(c2ccc(C)cc2)N1c1ccccc1`: the GI50 in the assay on Hs-578T was 4.21 µM (inactive); in the assay on U-251, 3.27 µM (inactive); in the assay with HCC 2998, 2.26 µM (inactive); with OVCAR-4, 22.4 µM (inactive); with SK-OV-3, 7.45 µM (inactive); with TK-10 it was 18.8 µM (inactive). For the same compound, the GI50 with HOP-92 is 27.1 µM (inactive); in the assay on NCI-H522, 0.617 µM (active); in the assay with UACC-257 it was 7.93 µM (inactive); in the assay with SNB-75, 2.08 µM (inactive); in the assay with RXF 393, 3.36 µM (inactive); in the assay with NCI-H226 it was 2.43 µM (inactive). Besides, the GI50 was 20.7 µM (inactive) with OVCAR-5; 3.3 µM (inactive) in the assay on CCRF-CEM; 4.02 µM (inactive) in the assay on NCI-H23; 6.22 µM (inactive) with SN12C; 4.04 µM (inactive) in the assay with SNB-19; 4.41 µM (inactive) in the assay with MOLT-4.
As for `CCN(CC)C(=O)CCNC(C)Cc1c[nH]c2ccccc12` (stereo unspecified), the GI50 with Hs-578T, with U-251, in the assay with HCC 2998, in the assay on OVCAR-4, with SK-OV-3 and with TK-10 was > 100 µM (inactive) in each case. Besides, the GI50 with HOP-92 was 96.8 µM (inactive); in the assay with NCI-H522, > 100 µM (inactive); with UACC-257 it was > 100 µM (inactive); in the assay with SNB-75, > 100 µM (inactive); in the assay with RXF 393 it was > 100 µM (inactive); with NCI-H226 it was > 100 µM (inactive). Also, the GI50 with OVCAR-5, with CCRF-CEM, in the assay with NCI-H23, in the assay on SN12C, in the assay with SNB-19 and in the assay with MOLT-4 was > 100 µM (inactive) in each case.
Consider `Cc1ccc(/N=N/c2c(C)nn(C(=O)CC(=O)Nc3ccc(Cl)cc3)c2C)cc1C`, for which the GI50 in the assay with Hs-578T was 7.05 µM (inactive); in the assay on U-251 it was 26.6 µM (inactive); with HCC 2998 it was > 100 µM (inactive); with OVCAR-4, > 100 µM (inactive); in the assay with SK-OV-3 it was 16.9 µM (inactive); in the assay on TK-10, 49.2 µM (inactive). Besides, the GI50 with HOP-92 is 12.4 µM (inactive); in the assay with NCI-H522, 32.2 µM (inactive); with UACC-257, > 100 µM (inactive); in the assay with SNB-75, 21 µM (inactive); with RXF 393, 20.7 µM (inactive); in the assay on NCI-H226 it was > 100 µM (inactive). For the same compound, the GI50 in the assay on OVCAR-5 was 98.2 µM (inactive); in the assay on CCRF-CEM, 29.1 µM (inactive); in the assay with NCI-H23 it was > 100 µM (inactive); with SN12C, > 100 µM (inactive); with SNB-19 it was 15.5 µM (inactive); in the assay on MOLT-4, 28.7 µM (inactive).
